Where two headings read alike, the source gives them in different places.
Key:
[1] = target: hNav1.6 (Homo sapiens (Human), UniProt Q9UQD0); experiment: Automated patch clamp (IonWorks Quattro) block of hNav1.6 channels in CHO cells; type: cell-based
Excerpt: (§1) FIG. 1 depicts the voltage sequence used to measure inhibitory activity of compounds as described in Example 3. An automated patch clamp screening assay was used to measure the inhibitory effect (potency) of compounds in three conformational states of the sodium channel: (1) the tonic state (TP1); (2) the frequency-dependent (10 Hz) state (TP11) and (3) the inactivated state (TP12).
(§2) Test Protocol for Determining the Potency of Compounds on Nav1.2 and Nav1.6 Subtypes of Voltage-Gated Sodium Ion Channels Expressed in Mammalian Cells
(§3) Cell culture procedures: Chinese hamster ovary (CHO) cells were stably transfected with the cDNA sequence of either the human SCN2A or SCN8A genes to create hNav1.2 or hNav1.6 cells respectively. The cell lines were cultured in Ham's F-12 medium supplemented with 10% fetal bovine serum and antibiotics in a tissue incubator at 37° C. under a humidified air/CO2 mixture (95/5 v/v). On the day of the experiment, cells were washed twice with Hank's balanced salt solution, treated with trypsin, and resuspended in fresh culture media at a density of 4−6×10^6 cells in 20 ml. Immediately before placing in the IonWorks Quattro instrument, cells were washed in Hank's balanced salt solution to remove culture medium and re-suspended in 3 ml of Hank's balanced salt solution.
(§4) Automated patch clamp recordings of cells using the IonWorks Quattro Instrument: The assay used a 384 microwell plate, which enabled 20 compounds to be studied at four different concentrations in quadruplicate as well as allowing a vehicle control group and a positive control group using mexiletine at 8 different concentrations. Cells were added to the wells of the Population Patch Clamp planar electrode using a 48-channel pipettor in a volume of 6 μL, per well. After 5 minutes incubation at ambient temperature with compounds or vehicle, membrane currents were recorded using the patch clamp amplifier. The pulse pattern was repeated twice, before and after compound addition and peak current amplitudes were measured at three test pulses, TP1, TP11 and TP12 to measure Tonic Block, 10 Hz Frequency-dependent Block and Inactivation State Block, respectively.
(§5) Data analysis: Data acquisition and analyses were carried out using the IonWorks Quattro system operation software which uses an algorithm to correct data for leak currents. Concentration-response curves were fitted by non-linear least squares regression allowing calculation of an IC50 value (μM), being the concentration of the compound producing half-maximal inhibition.

[2] = target: hNav1.2 (Homo sapiens (Human), UniProt Q99250); experiment: Automated patch clamp (IonWorks Quattro) block of hNav1.2 channels in CHO cells; type: cell-based
Chain of hNav1.2 (Q99250 whole entry): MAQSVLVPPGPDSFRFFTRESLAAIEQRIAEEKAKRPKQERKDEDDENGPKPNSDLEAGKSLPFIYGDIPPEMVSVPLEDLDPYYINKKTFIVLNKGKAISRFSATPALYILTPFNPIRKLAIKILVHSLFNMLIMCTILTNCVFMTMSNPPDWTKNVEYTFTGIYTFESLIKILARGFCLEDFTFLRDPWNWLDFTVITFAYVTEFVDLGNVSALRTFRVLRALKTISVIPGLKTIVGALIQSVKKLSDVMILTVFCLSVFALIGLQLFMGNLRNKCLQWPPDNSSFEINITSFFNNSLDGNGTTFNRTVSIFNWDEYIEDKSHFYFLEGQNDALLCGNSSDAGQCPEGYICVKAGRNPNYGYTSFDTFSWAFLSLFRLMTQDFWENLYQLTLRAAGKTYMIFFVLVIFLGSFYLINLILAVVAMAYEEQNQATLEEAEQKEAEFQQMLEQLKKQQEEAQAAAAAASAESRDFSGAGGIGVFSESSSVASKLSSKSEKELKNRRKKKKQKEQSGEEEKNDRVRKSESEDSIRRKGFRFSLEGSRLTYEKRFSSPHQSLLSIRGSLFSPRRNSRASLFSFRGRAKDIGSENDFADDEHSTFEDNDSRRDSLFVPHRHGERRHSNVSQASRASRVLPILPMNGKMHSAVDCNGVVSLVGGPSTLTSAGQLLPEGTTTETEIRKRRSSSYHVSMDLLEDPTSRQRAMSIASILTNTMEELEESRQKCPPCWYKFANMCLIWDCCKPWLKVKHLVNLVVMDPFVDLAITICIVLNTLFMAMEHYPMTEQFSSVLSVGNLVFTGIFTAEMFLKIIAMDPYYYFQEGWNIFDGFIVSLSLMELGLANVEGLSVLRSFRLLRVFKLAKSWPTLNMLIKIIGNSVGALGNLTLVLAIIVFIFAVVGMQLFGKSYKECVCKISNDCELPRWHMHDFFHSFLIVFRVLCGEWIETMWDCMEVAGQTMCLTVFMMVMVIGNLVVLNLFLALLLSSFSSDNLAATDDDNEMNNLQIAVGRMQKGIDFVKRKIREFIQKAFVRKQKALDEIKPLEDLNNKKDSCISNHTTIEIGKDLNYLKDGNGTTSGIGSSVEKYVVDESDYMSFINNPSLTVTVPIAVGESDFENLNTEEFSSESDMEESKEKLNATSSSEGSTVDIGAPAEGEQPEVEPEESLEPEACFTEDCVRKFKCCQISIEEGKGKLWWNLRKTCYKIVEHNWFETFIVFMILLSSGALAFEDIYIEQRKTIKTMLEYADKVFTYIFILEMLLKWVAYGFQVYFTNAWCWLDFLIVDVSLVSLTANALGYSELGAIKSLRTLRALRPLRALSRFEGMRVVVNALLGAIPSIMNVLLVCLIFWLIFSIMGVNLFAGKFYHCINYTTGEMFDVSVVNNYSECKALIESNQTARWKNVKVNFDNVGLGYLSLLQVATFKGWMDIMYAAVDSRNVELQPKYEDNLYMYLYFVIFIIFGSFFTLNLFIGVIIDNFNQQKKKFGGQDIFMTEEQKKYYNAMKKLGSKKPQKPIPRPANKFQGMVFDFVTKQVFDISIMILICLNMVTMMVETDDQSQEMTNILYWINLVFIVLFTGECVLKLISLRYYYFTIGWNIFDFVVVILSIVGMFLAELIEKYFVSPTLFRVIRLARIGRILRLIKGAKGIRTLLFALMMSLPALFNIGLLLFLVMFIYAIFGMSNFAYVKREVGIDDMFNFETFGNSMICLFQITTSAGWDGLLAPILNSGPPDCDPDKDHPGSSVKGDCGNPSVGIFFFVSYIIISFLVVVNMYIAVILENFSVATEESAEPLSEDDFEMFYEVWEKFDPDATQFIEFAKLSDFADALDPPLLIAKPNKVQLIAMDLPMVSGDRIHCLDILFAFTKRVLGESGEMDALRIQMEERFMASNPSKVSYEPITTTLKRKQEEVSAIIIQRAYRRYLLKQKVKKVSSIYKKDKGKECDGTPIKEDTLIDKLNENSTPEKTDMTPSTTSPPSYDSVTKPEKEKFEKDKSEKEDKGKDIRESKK
Excerpt: as §1, §2, §3, §4, §5

[3] = 10 Hz frequency-dependent block (TP11), read-out: IC50 Nav1.6 10 Hz block
[4] = Inactivated state block (TP12), read-out: IC50 Nav1.6 Inactivated state block
[5] = Tonic block (TP1), read-out: IC50 Nav1.6 Tonic block
[6] = 10 Hz frequency-dependent block (TP11), read-out: IC50 Nav1.2 10 Hz block
[7] = Inactivated state block (TP12), read-out: IC50 Nav1.2 Inactivated state block
[8] = Tonic block (TP1), read-out: IC50 Nav1.2 Tonic block

Chain of hNav1.6 (Q9UQD0 whole entry): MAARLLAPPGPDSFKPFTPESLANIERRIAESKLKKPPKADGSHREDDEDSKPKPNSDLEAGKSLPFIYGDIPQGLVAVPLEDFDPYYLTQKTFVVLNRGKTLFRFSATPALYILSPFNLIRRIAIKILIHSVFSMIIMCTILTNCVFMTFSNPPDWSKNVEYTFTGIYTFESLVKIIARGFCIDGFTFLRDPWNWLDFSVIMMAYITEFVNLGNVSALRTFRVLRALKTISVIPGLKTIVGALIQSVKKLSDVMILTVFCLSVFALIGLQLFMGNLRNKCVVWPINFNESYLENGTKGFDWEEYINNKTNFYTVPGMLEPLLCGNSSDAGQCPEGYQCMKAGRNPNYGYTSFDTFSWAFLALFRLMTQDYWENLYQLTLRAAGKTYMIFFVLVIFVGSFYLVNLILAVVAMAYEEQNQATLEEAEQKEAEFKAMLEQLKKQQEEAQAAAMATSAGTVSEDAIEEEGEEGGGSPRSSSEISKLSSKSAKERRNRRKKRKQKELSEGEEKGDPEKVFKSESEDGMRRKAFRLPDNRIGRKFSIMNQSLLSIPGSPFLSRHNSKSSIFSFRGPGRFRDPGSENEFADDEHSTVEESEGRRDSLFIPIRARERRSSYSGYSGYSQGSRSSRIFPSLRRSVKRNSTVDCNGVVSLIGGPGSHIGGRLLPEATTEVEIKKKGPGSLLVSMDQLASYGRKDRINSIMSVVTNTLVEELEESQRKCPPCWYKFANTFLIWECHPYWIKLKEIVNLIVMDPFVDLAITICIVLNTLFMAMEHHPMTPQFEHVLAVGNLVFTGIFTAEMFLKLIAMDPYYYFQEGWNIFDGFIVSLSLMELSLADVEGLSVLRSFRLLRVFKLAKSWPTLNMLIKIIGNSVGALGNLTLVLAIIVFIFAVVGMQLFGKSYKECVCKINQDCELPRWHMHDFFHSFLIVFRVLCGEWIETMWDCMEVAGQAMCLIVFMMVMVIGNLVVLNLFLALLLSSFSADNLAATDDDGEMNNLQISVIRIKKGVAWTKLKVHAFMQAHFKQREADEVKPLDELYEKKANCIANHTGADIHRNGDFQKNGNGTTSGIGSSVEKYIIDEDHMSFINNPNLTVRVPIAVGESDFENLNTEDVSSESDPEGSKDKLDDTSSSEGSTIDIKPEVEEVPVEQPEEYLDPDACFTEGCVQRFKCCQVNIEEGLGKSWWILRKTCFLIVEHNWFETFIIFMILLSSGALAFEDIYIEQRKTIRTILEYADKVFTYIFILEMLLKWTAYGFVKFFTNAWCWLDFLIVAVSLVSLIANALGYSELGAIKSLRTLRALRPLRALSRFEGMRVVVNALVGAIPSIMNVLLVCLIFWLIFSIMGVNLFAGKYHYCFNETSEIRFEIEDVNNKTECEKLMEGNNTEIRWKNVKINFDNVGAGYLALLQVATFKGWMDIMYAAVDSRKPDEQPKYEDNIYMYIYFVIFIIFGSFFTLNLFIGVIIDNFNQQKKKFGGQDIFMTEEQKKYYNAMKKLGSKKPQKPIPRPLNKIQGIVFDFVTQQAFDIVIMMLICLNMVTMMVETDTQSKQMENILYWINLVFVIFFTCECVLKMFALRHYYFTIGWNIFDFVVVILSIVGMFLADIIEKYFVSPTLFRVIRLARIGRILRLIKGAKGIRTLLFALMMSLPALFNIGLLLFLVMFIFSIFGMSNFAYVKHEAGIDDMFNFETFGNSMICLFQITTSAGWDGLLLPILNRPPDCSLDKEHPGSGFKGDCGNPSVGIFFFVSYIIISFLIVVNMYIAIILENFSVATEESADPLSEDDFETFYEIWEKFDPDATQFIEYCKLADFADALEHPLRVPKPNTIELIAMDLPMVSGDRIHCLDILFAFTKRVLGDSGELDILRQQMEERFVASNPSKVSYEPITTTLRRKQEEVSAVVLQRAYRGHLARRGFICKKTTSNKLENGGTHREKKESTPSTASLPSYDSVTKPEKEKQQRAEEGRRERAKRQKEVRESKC

## 3-(2,6-Dimethylphenoxy)-N-(3-(trifluoromethyl)benzyl)propan-1-amine [Compound 533]
[1]; [3]
  IC50: 4.3 µM
[1]; [4]
  IC50: 2.3 µM
[1]; [5]
  IC50: 7.1 µM
[2]; [6]
  IC50: 6.1 µM
[2]; [7]
  IC50: 2 µM
[2]; [8]
  IC50: ~10.1 µM

## Cc1cccc(C)c1OCCCNCc1ccccn1 [Compound 523, 3-(2,6-Dimethylphenoxy)-N-(pyridin-2-ylmethyl)propan-1-amine]
[1]; [3]
  IC50: 7.6 µM
[1]; [4]
  IC50: 2 µM
[1]; [5]
  IC50: > 10 µM
[2]; [6]
  IC50: ~10 µM
[2]; [7]
  IC50: 4.2 µM
[2]; [8]
  IC50: > 10 µM

## Cc1cccc(C)c1OCCCNCc1ccccc1 [Compound 518, N-Benzyl-3-(2,6-dimethylphenoxy)propan-1-amine]
[1]; [3]
  IC50: 2.9 µM
[1]; [4]
  IC50: 2 µM
[1]; [5]
  IC50: 5.2 µM
[2]; [6]
  IC50: 1.8 µM
[2]; [7]
  IC50: 0.5 µM
[2]; [8]
  IC50: 3.3 µM

## Cc1nn(C)c(C)c1OCCCNC(c1ccccn1)c1ccccn1 [Compound 644, N-(Dipyridin-2-ylmethyl)-3-(1,3,5-trimethyl-1H-pyrazol-4-yloxy)propan-1-amine]
[1]; [3]
  IC50: > 10 µM
[1]; [4]
  IC50: > 10 µM
[1]; [5]
  IC50: > 10 µM
[2]; [6]
  IC50: > 10 µM
[2]; [7]
  IC50: > 10 µM
[2]; [8]
  IC50: > 10 µM

## CC(=O)Nc1ccc(CNCCCOc2c(C)cccc2C)cc1 [Compound 542, N-(4-((3-(2,6-Dimethylphenoxy)propylamino)methyl)phenyl)acetamide]
[1]; [3]
  IC50: > 10 µM
[1]; [4]
  IC50: 7.1 µM
[1]; [5]
  IC50: > 10 µM
[2]; [6]
  IC50: > 10 µM
[2]; [7]
  IC50: 5 µM
[2]; [8]
  IC50: > 10 µM

## Cc1cccc(C)c1OCCCNCc1ccccc1-c1ccccc1 [Compound 536, N-(Biphenyl-2-ylmethyl)-3-(2,6-dimethylphenoxy)propan-1-amine]
[1]; [3]
  IC50: 3.7 µM
[1]; [4]
  IC50: 1.3 µM
[1]; [5]
  IC50: 21.4 µM
[2]; [6]
  IC50: 1.7 µM
[2]; [7]
  IC50: 0.4 µM
[2]; [8]
  IC50: > 30 µM

## Cc1cccc(C)c1OCCCNC(C)c1ccccc1 (stereo not drawn) [Compound 553, 3-(2,6-Dimethylphenoxy)-N-(1-phenylethyl)propan-1-amine]
[1]; [3]
  IC50: 1 µM
[1]; [4]
  IC50: 0.3 µM
[1]; [5]
  IC50: 1.6 µM
[2]; [6]
  IC50: 1.2 µM
[2]; [7]
  IC50: 0.2 µM
[2]; [8]
  IC50: 3.6 µM

## Cc1cccc(C)c1OCCCNCc1cccc(-c2ccccc2)c1 [Compound 535, N-(Biphenyl-3-ylmethyl)-3-(2,6-dimethylphenoxy)propan-1-amine]
[1]; [3]
  IC50: > 1000 µM
[1]; [4]
  IC50: > 1000 µM
[1]; [5]
  IC50: > 1000 µM
[2]; [6]
  IC50: 20.7 µM
[2]; [7]
  IC50: 7 µM
[2]; [8]
  IC50: 66.5 µM

## Cc1cccc(C)c1OCCCNCc1nn(Cc2ccccc2)c2ccccc12 [Compound 540, N-((1-Benzyl-1H-indazol-3-yl)methyl)-3-(2,6-dimethylphenoxy)propan-1-amine]
[1]; [3]
  IC50: 142 µM
[1]; [4]
  IC50: 80.5 µM
[1]; [5]
  IC50: 287 µM
[2]; [6]
  IC50: 2.3 µM
[2]; [7]
  IC50: 1.2 µM
[2]; [8]
  IC50: 23.5 µM

## Cc1cccc(C)c1OCCCNC(c1ccccc1)c1ccccc1 [Compound 554, N-Benzhydryl-3-(2,6-dimethylphenoxy)propan-1-amine]
[1]; [3]
  IC50: > 1000 µM
[1]; [4]
  IC50: > 1000 µM
[1]; [5]
  IC50: > 1000 µM
[2]; [6]
  IC50: 32.2 µM
[2]; [7]
  IC50: 1.4 µM
[2]; [8]
  IC50: > 1000 µM

— US10577308B2, “Sodium channel modulators” (The Florey Institute of Neuroscience and Mental Health, priority 2015, dated 2020)
